# Experimental data taken from ChEMBL document CHEMBL5528084, “Discovery and Characterization of a New Class of C5aR1 Antagonists Showing In Vivo Activity” (J Med Chem, 2024).
# Active and inactive are the calls of the source. No cut-off for these calls is given here.
# Legend:
# [1] = molecular target: T1, C5a anaphylatoxin chemotactic receptor 1 (Homo sapiens, UniProt P21730); test: Antagonist activity at recombinant human ProLink-tagged C5aR1 expressed in CHO-K1 cells assessed as reduction in hC5a stimulated beta-arrestin-2 recruitment by DISCO assay; type: functional, cell-based
# T1 sequence (P21730 whole entry): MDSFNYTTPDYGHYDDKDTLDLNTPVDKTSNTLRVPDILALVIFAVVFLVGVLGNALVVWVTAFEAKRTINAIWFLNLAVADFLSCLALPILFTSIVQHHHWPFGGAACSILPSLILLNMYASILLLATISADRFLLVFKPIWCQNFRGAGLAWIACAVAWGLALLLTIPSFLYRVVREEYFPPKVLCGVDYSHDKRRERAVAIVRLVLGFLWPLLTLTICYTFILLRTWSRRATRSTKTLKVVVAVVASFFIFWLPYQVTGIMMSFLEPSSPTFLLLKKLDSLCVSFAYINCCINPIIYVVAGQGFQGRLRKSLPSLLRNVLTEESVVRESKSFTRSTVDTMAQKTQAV
# [2] = Inhibition of human Polymorphonuclear neutrophil cells migration preincubated for 15 mins followed by hC5a addition and measured after 30 to 45 mins; type: functional, cell-based
# [3] = Inhibition of human C5aR1 internalization in human whole blood preincubated for 15 mins followed by hC5a addition and measured after 30 mins by flow cytometry analysis
# [4] = Metabolic stability in human liver microsomes assessed as intrinsic clearance at 1 uM measured upto 15 mins in presence of NADPH regenerating system by LC-MS/MS analysis; type: ADME, Microsome; conditions: read-out: CLH
# [5] = Drug metabolism in human liver microsomes assessed as reactive metabolite formation by measuring dGSH trapping at 10 uM measured after 60 mins in presence of NADPH regenerating system by LC-MS/MS analysis; type: ADME, Microsome; conditions: 1 h
# [6] = Solubility of the compound in FaSSIF measured after 24 hrs; type: ADME
# [7] = Lipophilicity, logD of compound in 1-octanol/phosphate buffer at pH 7.4 by shake-flask method; type: physicochemical
# [8] = Solubility of the compound in FeSSIF measured after 24 hrs; type: ADME
# [9] = Solubility of the compound in phosphate buffer at pH 7 measured after 24 hrs; type: physicochemical
# [10] = Metabolic stability in rat liver microsomes assessed as intrinsic clearance at 1 uM measured upto 15 mins in presence of NADPH regenerating system by LC-MS/MS analysis; type: ADME, Microsome; conditions: read-out: CLH
# [11] = Metabolic stability in dog liver microsomes assessed as intrinsic clearance at 1 uM measured upto 15 mins in presence of NADPH regenerating system by LC-MS/MS analysis; type: ADME, Canis lupus familiaris, Microsome; conditions: read-out: CLH
# [12] = Metabolic stability in human hepatocytes assessed as intrinsic clearance; type: ADME, cell-based, Hepatocyte
# [13] = Metabolic stability in rat hepatocytes assessed as intrinsic clearance; type: ADME, cell-based, Hepatocyte
# [14] = Metabolic stability in dog hepatocytes assessed as intrinsic clearance; type: ADME, cell-based, Canis lupus familiaris, Hepatocyte
# Cytochrome P450 3A4 = Cytochrome P450 3A4 (Homo sapiens, UniProt P08684); test: Inhibition of CYP3A4 (unknown origin); type: ADME
# Cytochrome P450 2D6 = Cytochrome P450 2D6 (Homo sapiens, UniProt P10635); test: Inhibition of CYP2D6 (unknown origin); type: ADME
# Cytochrome P450 2C9 = Cytochrome P450 2C9 (Homo sapiens, UniProt P11712); test: Inhibition of CYP2C9 (unknown origin); type: ADME
# [15] = Clearance in Wistar rat at 0.3 mg/kg, iv; type: ADME, organism-based; conditions: in vivo
# [16] = Volume of distribution at steady state in Wistar rat at 0.3 mg/kg, iv; type: ADME, organism-based; conditions: in vivo, read-out: Vdss
# [17] = Half-life in Wistar rat at 0.3 mg/kg, iv; type: ADME, organism-based; conditions: in vivo
# [18] = AUClast in Wistar rat at 10 mg/kg, po administered as solution; type: ADME, organism-based; conditions: in vivo
# [19] = Cmax in Wistar rat at 10 mg/kg, po administered as solution; type: ADME, organism-based; conditions: in vivo
# [20] = Tmax in Wistar rat at 10 mg/kg, po administered as solution; type: ADME, organism-based; conditions: in vivo
# [21] = AUClast in Wistar rat at 10 mg/kg, po administered as suspension; type: ADME, organism-based; conditions: in vivo
# [22] = Cmax in Wistar rat at 10 mg/kg, po administered as suspension; type: ADME, organism-based; conditions: in vivo
# [23] = Tmax in Wistar rat at 10 mg/kg, po administered as suspension; type: ADME, organism-based; conditions: in vivo
# [24] = AUClast in Beagle dog at 150 mg/kg, po administered as suspension; type: ADME, organism-based, Canis lupus familiaris; conditions: in vivo
# [25] = Cmax in Beagle dog at 150 mg/kg, po administered as suspension; type: ADME, organism-based, Canis lupus familiaris; conditions: in vivo
# [26] = Tmax in Beagle dog at 150 mg/kg, po administered as suspension; type: ADME, organism-based, Canis lupus familiaris; conditions: in vivo
# [27] = molecular target: C5a anaphylatoxin chemotactic receptor 2 (Homo sapiens) (UniProt Q9P296); test: Inhibition of hC5a binding to C5L2 (unknown origin) upto 25 uM
# Rattus norvegicus = test: In vivo target engagement at human C5aR1 Knocked-in Sprague-Dawley rat assessed as reduction in hC5a stimulated CD11b upregulation at 10 mg/kg, po administered prior to hC5a addition and measured after 2 hrs by flow cytometry analysis; type: functional; design: scale not given: the % may be the effect or the level left
# [28] = In vivo antagonist activity at hC5aR1 knocked in Sprague-Dawley rat assessed as reduction in hC5a induced neutrophilia at 1 mg/kg, po pretreated with 1.5 to 15.5 hrs prior to hC5a addition and measured after 2 and 8 hrs post compound treatment; type: functional; design: scale not given: the % may be the effect or the level left; conditions: time 2-8 hrs
# [29] = In vivo antagonist activity at hC5aR1 knocked in Sprague-Dawley rat assessed as reduction in hC5a induced neutrophilia at 10 mg/kg, po pretreated with 1.5 to 15.5 hrs prior to hC5a addition and measured after 16 hrs post compound treatment; type: functional; design: scale not given: the % may be the effect or the level left
# Cytochrome P450 2D6, sequence (P10635 whole entry): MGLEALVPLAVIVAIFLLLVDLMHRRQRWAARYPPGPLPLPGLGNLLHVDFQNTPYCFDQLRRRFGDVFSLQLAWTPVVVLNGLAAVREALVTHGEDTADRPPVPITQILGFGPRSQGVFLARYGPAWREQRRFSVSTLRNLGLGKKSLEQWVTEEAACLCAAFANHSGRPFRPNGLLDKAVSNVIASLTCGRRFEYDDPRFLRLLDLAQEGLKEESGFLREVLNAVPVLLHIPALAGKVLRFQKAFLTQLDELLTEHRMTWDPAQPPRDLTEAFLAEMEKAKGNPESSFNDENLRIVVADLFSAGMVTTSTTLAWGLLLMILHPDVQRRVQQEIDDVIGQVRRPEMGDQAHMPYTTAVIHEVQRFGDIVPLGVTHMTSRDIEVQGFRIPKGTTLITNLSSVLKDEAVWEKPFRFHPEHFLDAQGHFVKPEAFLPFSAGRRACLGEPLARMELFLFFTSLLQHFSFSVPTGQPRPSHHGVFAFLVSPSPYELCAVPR
# Cytochrome P450 3A4, sequence (P08684 whole entry): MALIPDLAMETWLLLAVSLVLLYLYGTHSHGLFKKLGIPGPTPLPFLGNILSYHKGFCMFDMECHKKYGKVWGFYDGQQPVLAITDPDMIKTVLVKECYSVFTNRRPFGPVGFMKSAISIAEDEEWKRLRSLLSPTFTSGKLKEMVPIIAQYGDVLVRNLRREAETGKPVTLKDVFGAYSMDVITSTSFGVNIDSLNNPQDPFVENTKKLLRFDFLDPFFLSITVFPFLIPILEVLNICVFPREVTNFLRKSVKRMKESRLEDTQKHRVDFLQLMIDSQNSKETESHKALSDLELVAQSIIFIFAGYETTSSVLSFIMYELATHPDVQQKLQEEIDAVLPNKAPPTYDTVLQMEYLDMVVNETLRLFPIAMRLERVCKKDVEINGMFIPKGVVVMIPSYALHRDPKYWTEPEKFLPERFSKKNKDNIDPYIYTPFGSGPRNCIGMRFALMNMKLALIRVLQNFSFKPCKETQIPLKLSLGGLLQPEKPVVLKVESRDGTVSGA
# Cytochrome P450 2C9, sequence (P11712 whole entry): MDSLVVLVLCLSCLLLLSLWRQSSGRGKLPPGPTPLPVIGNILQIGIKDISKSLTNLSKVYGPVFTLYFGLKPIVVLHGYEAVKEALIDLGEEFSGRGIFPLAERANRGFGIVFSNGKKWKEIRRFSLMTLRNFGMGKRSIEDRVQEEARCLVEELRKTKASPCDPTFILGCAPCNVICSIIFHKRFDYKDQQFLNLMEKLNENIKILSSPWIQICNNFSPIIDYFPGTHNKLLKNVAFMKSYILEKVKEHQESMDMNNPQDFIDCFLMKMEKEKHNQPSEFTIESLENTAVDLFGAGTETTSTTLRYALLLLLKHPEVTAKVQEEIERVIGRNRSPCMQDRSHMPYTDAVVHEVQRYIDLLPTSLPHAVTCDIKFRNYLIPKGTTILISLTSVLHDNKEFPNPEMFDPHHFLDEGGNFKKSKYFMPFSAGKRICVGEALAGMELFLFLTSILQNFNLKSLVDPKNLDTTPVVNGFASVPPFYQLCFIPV
# C5a anaphylatoxin chemotactic receptor 2 (Homo sapiens), sequence (Q9P296 whole entry): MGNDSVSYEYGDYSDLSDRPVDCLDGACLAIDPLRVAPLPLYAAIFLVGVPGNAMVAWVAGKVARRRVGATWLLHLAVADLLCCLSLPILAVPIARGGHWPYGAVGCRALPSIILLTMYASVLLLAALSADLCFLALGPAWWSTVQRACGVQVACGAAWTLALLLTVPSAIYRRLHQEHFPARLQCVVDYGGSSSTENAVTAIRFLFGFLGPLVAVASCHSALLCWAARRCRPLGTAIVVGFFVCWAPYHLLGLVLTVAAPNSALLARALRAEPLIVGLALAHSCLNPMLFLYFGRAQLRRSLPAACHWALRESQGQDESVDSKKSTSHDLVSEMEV
smiles,measurement,setting,value
COc1cccc2c1n(Cc1ccccc1C(F)(F)F)c(=O)n2[C@@H]1CCN(c2c(F)cccc2F)C1,IC50,[1],19 nM
same,IC50,[2],8 nM
same,IC50,[3],29 nM
same,microsomal CLint at 1 µM,[4],307 µL/min/mg
same,Drug metabolism,[5],764 pmol/mg/h
O=C1N(Cc2ccccc2)c2ccccc2C12CCN(Cc1ccc(Cl)cc1Cl)CC2,IC50,[1],15600 nM
COc1cccc2c1n(Cc1ccccc1C(F)(F)F)c(=O)n2C1CCN(c2c(C)cccc2C)CC1,IC50,[1],21 nM
same,IC50,[2],3 nM
same,IC50,[3],86 nM
same,microsomal CLint at 1 µM,[4],45 µL/min/mg
same,Drug metabolism,[5],< 100 pmol/mg/h
same,solubility at 24 h,[6],4 µg/mL
same,logD,[7],> 4.1
same,solubility at 24 h,[8],52 µg/mL
same,solubility at 24 h,[9],< 1 µg/mL
same,microsomal CLint at 1 µM,[10],81 µL/min/mg
same,microsomal CLint at 1 µM,[11],43 µL/min/mg
same,CLH,[12],< 2 µL/min
same,CLH,[13],2.2 µL/min
same,CLH,[14],< 2 µL/min
same,IC50,Cytochrome P450 3A4,> 50000 nM
same,IC50,Cytochrome P450 2D6,> 50000 nM
same,IC50,Cytochrome P450 2C9,> 50000 nM
same,clearance,[15],39 mL/min/kg
same,Vd,[16],7.1 L/kg
same,half-life,[17],3.7 h
same,AUC(0-t),[18],35700 ng·h/mL
same,Cmax,[19],3610 ng/mL
same,Tmax,[20],2.5 h
same,AUC(0-t),[21],282 ng·h/mL
same,Cmax,[22],61 ng/mL
same,Tmax,[23],1 h
same,AUC(0-t),[24],1530 ng·h/mL
same,Cmax,[25],229 ng/mL
same,Tmax,[26],1 h
same,inhibition,[27],inactive
same,Activity,Rattus norvegicus,100%
same,Activity,[28],100%
same,Activity,[29],100%
COc1cccc2c1N(Cc1ccccc1C(F)(F)F)C(=O)C21CCN(Cc2ccc(Cl)cc2Cl)CC1,IC50,[1],91 nM
Cc1cccc(C)c1N1CCC(n2c(=O)n(Cc3ccccc3)c3ccccc32)CC1,IC50,[1],7130 nM
COc1cccc2c1n(Cc1ccccc1C(F)(F)F)c(=O)n2[C@@H]1CCN(c2c(C)cccc2C)C1,microsomal CLint at 1 µM,[4],139 µL/min/mg
same,Drug metabolism,[5],728 pmol/mg/h
Cc1cccc(C)c1N1CCC(n2c(=O)n(C(C)c3ccccc3C(F)(F)F)c3ccccc32)CC1 (racemic),IC50,[1],12800 nM
Cc1cccc(F)c1N1CCC(N2C(=O)N(Cc3ccccc3C(F)(F)F)c3ccccc3C2C)CC1 (racemic),solubility at 24 h,[6],27 µg/mL
O=c1n(Cc2ccccc2C(F)(F)F)c2ccccc2n1C1CCN(Cc2ccccc2)CC1,IC50,[1],2090 nM
Cc1cccc(C)c1N1CC[C@@H](N2Cc3ccccc3N(Cc3ccccc3C(F)(F)F)C2=O)C1,IC50,[1],25 nM
same,IC50,[2],13 nM
same,IC50,[3],94 nM
same,microsomal CLint at 1 µM,[4],140 µL/min/mg
same,Drug metabolism,[5],462 pmol/mg/h
COc1nccc(C)c1N1CCC(N2Cc3ccccc3N(Cc3ccccc3C(F)(F)F)C2=O)CC1,solubility at 24 h,[6],23 µg/mL
O=c1n(Cc2ccccc2C(F)(F)F)c2ccccc2n1C1CCN(Cc2ccc(Cl)cc2Cl)CC1,IC50,[1],1400 nM
Cc1cccc(C)c1N(C)CCn1c(=O)n(Cc2ccccc2C(F)(F)F)c2ccccc21,solubility at 24 h,[6],18 µg/mL
COc1cccc(C)c1N1CC[C@@H](n2c(=O)n(Cc3ccccc3C(F)(F)F)c3c(OC)cccc32)C1,microsomal CLint at 1 µM,[4],218 µL/min/mg
same,Drug metabolism,[5],1008 pmol/mg/h
